Key:
[1] = tested on: M2 macrophages from primary CD14+human monocytes; experiment: Macrophage gene expression via RT-qPCR; type: cell-based; details: 1 μM TS free or in nanotubes, or empty nanotubes; compared to untreated M2-macrophages
Procedure: Freshly isolated primary CD14+human monocytes were plated at a density of 500,000 cells/well in the presence of 50 ng/mL of M-CSF (macrophage colony stimulating factor) to differentiate them to MO-macrophages. The media were renewed with the same composition (DMEM+10% FBS+1% Penicillin-Streptomycin+50 ng/mL M-CSF) every 2-3 days until complete differentiation. The macrophages were treated with 20 ng/mL of IL-4 for 3 days differentiate them to an M2-phenotype.
Cells were detached using 1× Tryp1E Express Enzyme (ThermoFisher Scientific) and washed with PBS. TRIzol (ThermoFisher Scientific) was added to the cells followed by absolute ethanol. mRNA was collected in Zymo-Spin IC columns (Zymo Research) by centrifuging the cell solution in the spin columns. The mRNA was washed and resuspend in RNAse and DNAse free water. After evaluating the mRNA concentration, the cDNA reaction mixture was prepared by adding the mRNA to nuclease-free water, iScript Reverse Transcriptase (Bio-Rad) and 5× iScript Reaction Mix. The cDNA reaction was performed using TurboCycler Lite Thermal Cycler (Blue-Ray Biotech). The cDNA was then aliquoted and added to a mixture of primers for the genes 1112b, 118, Nos2, 1110, Tgfb1 and Fizz1 respectively along with iTaq™ Universal SYBR® Green Supermix (Bio-Rad). […] Data was analysed using the ΔΔCt method. […]

[2] = tested on: GL261 cells; experiment: Inhibition of endocytosis (nanotube uptake, flow cytometry); type: cell-based, mouse; details: inhibitor 30 min then nanotubes 3 hours, 30 μg/mL DMA, 500 μg/mL fucoidan, 10 μM LatB
Procedure: 200,000 GL261 cells were plated per well in 12-well plates and incubated at 37° C. and 5% CO2 overnight. The following day, media was replaced with fresh media, and inhibitor stock solutions were diluted and delivered to the cells at targeted concentrations: 1.25 μg/mL cytochalasin D (CytD), 10 μM latrunculin B (LatB), 15 μg/mL nocodazole, 5 μg/mL fillipin, 2.5 μg/mL nystatin, 1.32 mg/mL methyl-β-cyclodextrin (MPCD), 2.5 μg/mL chlorpromazine (CPZ), 12.5 μg/mL dynasore, 0.2 μg/mL pertussis toxin (PTX), 2 μg/mL cholera toxin (CTX), 30 μg/mL 5-(N,N-dimethyl)-amiloride hydrochloride (DMA), and 500 μg/mL fucoidan. Cells with no inhibitor were used as positive controls. Plates were gently shaken by hand to ensure even distribution of inhibitors, and placed in the incubator for 30 minutes. […] Cells were washed twice with 1 mL PBS, trypsin-EDTA at 37° C. was added to each well, the contents of each well were individually mixed via up and down pipetting and transferred to 1.5 mL centrifuge tubes. Cells were washed twice with PBS, reconstituted in 500 μL PBS and transferred to flow cytometry tubes. 5 μL of 10 μg/mL propidium iodide (PI) solution was added to each tube and vortexed. The cells were run on a BD FACSCanto flow cytometer and were examined for PI and HEX fluorescence via excitation at 488 nm with a 585/42 filter. Cells were gated by PI staining to select for live cells, and by scattering (FSC-A and SSC-A) to select for single cells. To evaluate cytotoxicity of inhibitors, 10,000 GL261 cells were plated in 96-well plates and incubated overnight in a 37° C. 5% C02 incubator. The next day, media was replaced with fresh formulated media, and inhibitor stock solutions were diluted and delivered to the cells at concentrations mentioned above. Plates were gently shaken by hand and placed in the incubator for 3 hours. Cell viability was measured using CellTiter-Glo 2.0 assay (Promega, Madison, WI) following the manufacturer's protocol. Luminescence was recorded using a Synergy H1 microplate reader (Biotek, Winooski, VT), and cell viability was normalized to untreated cells.

[3] = tested on: GL261 cells; experiment: Cell viability (CellTiter-Glo 2.0); type: cell-based, mouse; details: 12 hours + 36 hours at 37° C.; NT 5-6.4 μM ssDNA-amphiphiles, DOX 5 μg/mL, NT-DOX same concentrations; normalized to untreated
Procedure: The samples were incubated with cells for 12 hours at 37° C., followed by a single wash with PBS. 100 μL of fresh media was added, and cells were incubated at 37° C. for an additional 36 hours. […] The luminescence signal of each well was measured, and the luminescence of each group was normalized to the luminescence of the untreated cells.

[4] = Histopathological analysis of organs (H&E); type: in vivo, mouse
From the text: 8 week old mice were used for this study. […] The photon counts within each ROI were quantified.
Following perfusion and fixation with 10% neutral buffered formalin, tissues were processed into paraffin blocks using standard histology techniques, sectioned at a thickness of […], stained with hematoxylin and eosin (H&E), and evaluated using light microscopy.

[5] = tested on: GL261-Luc orthotopic tumor; experiment: Intracranial delivery via CED in orthotopic GL261-Luc mouse model

Q: Which “expression of genes associated with M2-like macrophages (ΔΔCt)” value [1] does the source give for `C=C(NC(=O)C(=C)NC(=O)c1csc(C2=N[C@@H]3c4csc(n4)[C@H]4NC(=O)c5csc(n5)[C@H]([C@](C)(O)[C@@H](C)O)NC(=O)[C@H]5CSC(=N5)/C(=C/C)NC(=O)[C@H]([C@@H](C)O)NC(=O)c5csc(n5)[C@]3(CC2)NC(=O)[C@H](C)NC(=O)C(=C)NC(=O)[C@H](C)NC(=O)[C@H]([C@@H](C)CC)N[C@@H]2C=Cc3c([C@H](C)O)cc(nc3[C@H]2O)C(=O)O[C@@H]4C)n1)C(N)=O` [free TS, thiostrepton] here?
A: successful at downregulating genes associated with M2-like macrophages

Q: What about the “expression of genes of M1-like macrophages (ΔΔCt)” value [1] of the same compound?
A: upregulating genes of M1-like macrophages

Q: With fucoidan as the compound, how does the “inhibition of cellular uptake of the nanotubes” value (“inhibition” below) [2] read?
A: 57%

Q: With `COc1cccc2c1C(=O)c1c(O)c3c(c(O)c1C2=O)C[C@@](O)(C(=O)CO)C[C@@H]3O[C@H]1C[C@H](N)[C@H](O)[C@H](C)O1.Cl` [DOX, Doxorubicin-hydrogen chloride] as the compound, how does the “viability of GL261 cells” value [3] read?
A: 47±6%

Q: And the histology of liver [4]?
A: multifocal areas of hepatocyte degeneration and necrosis

Q: What about the histology of spleen [4] of the same compound?
A: diffuse, moderate to marked depletion of the spleen white pulp associated with zonal lymphocytic apoptosis and necrosis

Q: What about the “histology of lung, kidney and heart tissues” value ([4]; compared to the PBS control) of the same compound?
A: no significant findings

Q: And the body weight gained ([5]; after 28 days)?
A: 6%

Q: And the “decrease in tumor signal (bioluminescence)” value ([5]; day 28, pump 70 μM DOX (0.2 mg DOX/Kg mouse), about 14 days, 0.25 μL/hour)?
A: 80%

Q: What about the median survival time ([5]; n=9-10 per group, NT 95 μM ssDNA-amphiphiles, DOX 70 μM) of the same compound?
A: 34.5 days

Q: Which “inhibition” value [2] does the source give for `C/C1=C/C(=O)O[C@@H]2C[C@@H](CC[C@H](C)/C=C\CC1)O[C@@](O)([C@@H]1CSC(=O)N1)C2` [LatB, latrunculin B] here?
A: 20%

Q: For `CN(C)c1nc(N)c(C(=O)N=C(N)N)nc1Cl.Cl` [DMA, 5-(N,N-dimethyl)-amiloride hydrochloride], which “inhibition” value [2] is on record?
A: 44%

— patent publication US20240285525A1, “METHODS AND MATERIALS FOR TREATING CANCER” (The Johns Hopkins University, priority 2021, published 2024)
